Entries after “also recorded” stand apart in the source; their conditions may differ.
What was measured:
[1] = test system: L. infantum promastigote forms; assay: In vitro activity against extracellular (promastigote) forms; format: cell-based, Leishmania infantum; settings: for Selectivity Index (SI) L. infantum Promastigote forms: IC50 of macrophages / IC50 of parasite form; for IC50: Leishmania infantum, 72 h
Source text: (§1) Methodology: Cultures of three Leishmania species, representative of the species causing each of the clinical forms of the disease, were used for these studies. Specifically, strains MCAN/ES/2001/UCM-1 O of L.infantum, isolated and characterised in Madrid from an infected dog; MHOM/BR/1975/M2904 of L.braziliensis, isolated in Brazil in a human case, and LCR-L 133 LRC of L.donovani. isolated in Jerusalem, Israel from a case of kala-azar […] (WHO Technical Reports Series 949. Geneva: WHO. March. The cultures of parasites come from an own collection which was prepared from a biobank project (Biobank and Characterisation Unit of Strains and Species of Trypanosomatids, Responsible for Human, Animal and Plant Pathologies, Cgl-2008-03687-E/Bos.), and are available on request.
(§2) The promastigote forms of the three species studied were cultured in vitro in sterility in single-phase MTL culture medium (Medium Trypanosomes Liquid) made from Hank’s Balanced Salts (Sigma-Aldrich, H6136) enriched with 10% (v/v) of Fetal Bovine Serum (SBF-1) inactivated at 56° C./ 30 minutes. The parasite inoculum to initiate the culture was 5 × 10^4 cells/ml in 5 ml medium in 25 cm^2 Falcon® plastic flasks and kept in an oven at 28° C. The cultures were performed routinely, achieving exponential growth of the flagellates until obtaining the cell mass necessary for the subsequent studies. Both promastigote forms and amastigote forms were used to conduct the assays.
(§3) The promastigote forms of the three Leishmania strains, cultured in the manner described above, were harvested in their exponential growth phase by centrifugation at 400 g for 10 min. The number of parasites was counted in a Neubauer Haemocytometer Counting Chamber and were inoculated in a 24-well plate at a concentration of 5 ×10^4 parasites/well.
(§4) The compounds to be assayed were dissolved in DMSO at a concentration of 0.01% (v/v), concentration at which this solvent is not toxic nor has any effect on the growth of parasites. The compounds were added to the culture medium at final concentrations of 100, 50, 25 and 12.5 µM. […] M. et al. Med. Chem. 2011. 54. 970-979].

[2] = test system: L. braziliensis promastigote forms; assay: as above; format: cell-based, Leishmania braziliensis; settings: for Selectivity Index (SI) L. brazilensis Promastigote forms: IC50 of macrophages / IC50 of parasite form; for IC50: Leishmania braziliensis, 72 h
Source text: as §1, §2, §3, §4

[3] = test system: L. donovani promastigote forms; assay: as above; format: cell-based, Leishmania donovani; settings: for Selectivity Index (SI) L. donvovani Promastigote forms: IC50 of macrophages / IC50 of parasite form; for IC50: Leishmania donovani, 72 h
Source text: as §1, §2, §3, §4

[4] = test system: intracellular forms of L.infantum in J774.2 macrophages; assay: Infection rate and parasite growth in infected macrophage cultures; format: cell-based, Leishmania infantum; settings: compound at IC25, 10 days
Description: (§5) Methodology: Macrophages of the J774.2 line preserved in the laboratory of the present inventors by cryopreservation at -80° C. and successive runs in MEM+Glutamine + 20% SBFI medium were used, which were deposited in a […] tube and centrifuged at 100 g for 5 minutes. The supernatant was discarded and the cells were resuspended in medium corresponding to a final concentration of 1×10^6 cells/ml. Subsequently, 10 μl of the cell suspension was deposited into each well of a 24-well culture plate each with a 10 mm diameter round slide. A final volume of 500 μl was completed with the culture medium and incubated for 24 h at 37° C. in humid atmosphere with 5% CO2. […] The non-phagocytic parasites and products were removed by washing and the infected cultures were maintained for 10 days in fresh medium added every 48 hours. The activity of the compounds was determined by the percentage of infected cells and the number of amastigotes per infected cell. Finally, the cultures were fixed and stained with methanol and Giemsa.

[5] = test system: intracellular forms of L.braziliensis in J774.2 macrophages; assay: as above; format: cell-based, Leishmania braziliensis; settings: compound at IC25, 10 days
Description: as §5

[6] = test system: intracellular forms of L.donovani in J774.2 macrophages; assay: as above; format: cell-based, Leishmania donovani; settings: compound at IC25, 10 days
Description: as §5

[7] = test system: FeSOD of promastigote forms of L.infantum; assay: In vitro inhibition of FeSOD (NBT reduction); format: biochemical, Leishmania infantum
Description: (§6) Methodology: Compounds that were selected from the leishmanicidal activity shown in previous experiments were evaluated as inhibitors of FeSOD enzyme activity, which is unique to the kinetoplastid parasites to which Leishmania belongs. Being exclusive, it is absent in the vertebrate host, since these usually have an analogous form of that enzyme, but complexed to a copper or zinc atom (Cu/ZnSOD). For this reason, this enzyme is a therapeutic target for the design of new drugs, since the capture of the metal ion by complexing mechanisms can inactivate the enzyme and compromise the survival of the parasite with the appearance of free radicals.
Inhibition caused by the novel compounds on FeSOD/ Cu-Zn SOD activity was quantified on the spectrophotometer at 560 nm according to the technique described by [W F. Beyer. I. Fridovich. Anal Biochem. 1987. 161: 559-66] based on the determination of the reduction of NBT (nitro blue tetrazolium) by superoxide ions and which the group of the present inventors has developed for the assay in trypanosomatides, being a routine technique in the laboratory of said group [F. Luque. et. al. Comp. Biochem. Physiol. C Toxicol. Pharmacol. 2000. 126: 39-44; M. Sanchez-Moreno. Med. Chem. 2011. 54. 970-9; I. Ramírez-Macías. et. al. J. Antimicrob. Chemother 2011. 66(4): […]].
Briefly, the cultured parasites as described in Example 1 underwent centrifugation, the pellet was resuspended (0.5 - 0.6 g/ml) in 3 ml of STE buffer ([…]. pH 7.8) and underwent 3 cycles of sonication from 30 s at 60 V. Then, it was centrifuged at 1500 g for 10 min at 4° C. and the pellet was washed 3 times with ice-cooled STE buffer. This fraction was centrifuged (2500 g for 10 min at 4° C.) and the supernatant was subsequently collected. Protein concentrations were determined by means of the Bradford method (Sigma-Aldrich) using bovine serum albumin as standard. […] A first measurement of the absorbance at 560 nm was made on a spectrophotometer and, after 10 minutes under light and under stirring conditions, the absorbance was re-determined. […]

[8] = test system: FeSOD of the promastigote forms of L.braziliensis; assay: In vitro inhibition of FeSOD (NBT reduction); format: biochemical, Leishmania braziliensis
Description: as §6
(§7) Inhibition caused by the novel compounds on FeSOD/ Cu-Zn SOD activity was quantified on the spectrophotometer at 560 nm according to the technique described by [W F. Beyer. I. Fridovich. Anal Biochem. 1987. […]
(§8) Briefly, the cultured parasites as described in Example 1 underwent centrifugation, the pellet was resuspended (0.5 - 0.6 g/ml) in 3 ml of STE buffer (0.25 M. Tris-HCI 25 mM sucrose. 1 M EDTA. pH 7.8) and underwent 3 cycles of sonication from 30 s at 60 V. Then, it was centrifuged at 1500 g for 10 min at 4° C. and the pellet was washed 3 times with ice-cooled STE buffer. […] Protein concentrations were determined by means of the Bradford method (Sigma-Aldrich) using bovine serum albumin as standard. […]

[9] = test system: FeSOD of promastigote forms of L.donovani; assay: In vitro inhibition of FeSOD (NBT reduction); format: biochemical, Leishmania donovani
Description: as §6, §7, §8

Compound | Selectivity Index (SI) L. infantum Promastigote forms [1] | IC50 [1] [µM] | Selectivity Index (SI) L. brazilensis Promastigote forms [2] | IC50 [2] [µM] | Selectivity Index (SI) L. donvovani Promastigote forms [3] | IC50 [3] [µM] | Number of amastigotes per infected cell [4] | Percentage of infection (infection rate) [4] | Number of amastigotes per infected cell [5] | Percentage of infection (infection rate) [5] | Number of amastigotes per infected cell [6] | Percentage of infection (infection rate) [6] | Concentration for 50% inhibition (IC50) of FeSOD of L.infantum [7] | Concentration for 50% inhibition (IC50) of FeSOD of L.braziliensis [8] | Concentration for 50% inhibition (IC50) of FeSOD of L.donovani [9]
CN(C)CCNCc1ccccn1 [Compound 4, 1-(2-pyridyl)-5-methyl-2,5-diazahexane] | 43 | 28.6 ± 2.5 | 33 | 37.3 ± 0.9 | 36 | 34.8 ± 1.5 | better (lower) than those obtained with compound 5 | lower infection rate on day 10 | effective by decreasing | effective by decreasing | effective by decreasing | effective by decreasing | less than that necessary to achieve the same percentage of inhibition of the CuZnSOD enzyme of human erythrocytes; also recorded: showed ability to inhibit FeSOD | lower than that necessary for the enzyme of human erythrocytes; also recorded: showed ability to inhibit FeSOD | lower than that necessary for the enzyme of human erythrocytes; also recorded: showed ability to inhibit FeSOD
CNCCNCc1ccc2ccccc2n1 [Compound 9, 1-{2-quinolyl)-2,5-diazahexane] | 23 | 15.6 ± 0.8 | 13 | 28 ± 0.3 | 13 | 27.5 ± 0.4 |  |  |  |  |  |  |  |  | 
CN(C)CCNCc1ccc2ccccc2n1 [Compound 7] | 5 | 84.4 ± 5.1 | 4 | 105 ± 11.6 | 8 | 56.9 ± 2.7 |  |  |  |  |  |  |  |  | 
CNCCNCc1ccccn1 [Compound 1, 1-{2-pyridyl}-2,5-diazahexane] | 23 | 0.6 ± 0.2 | 2 | 7.4 ± 0.6 | 2 | 7 ± 0.5 |  |  |  |  |  |  |  |  | 
CNCCNCc1ccncc1 [Compound 3, 1-{4-pyridyl)-2,5-diazahexane] | 18 | 12.6 ± 2.1 | 16 | 14.3 ± 1 | 12 | 18.4 ± 0.8 |  |  |  |  |  |  |  |  | 
CN(C)CCNCc1ccncc1 [Compound 6] | 8 | 63.3 ± 1.5 | 9 | 52.5 ± 5.1 | 7 | 67.9 ± 5.3 |  |  |  |  |  |  |  |  | 
CN(C)CCNCc1cccnc1 [Compound 5, 1-{3-pyridyl}-5-methyl-2,5-diazahexane] |  | 9.2 ± 0.7 | 14 | 16.7 ± 0.5 | 11 | 21.7 ± 1.6 |  | lower infection rates than compound 4 until 8 days had elapsed |  |  |  |  | less than that necessary to achieve the same percentage of inhibition of the CuZnSOD enzyme of human erythrocytes; also recorded: showed ability to inhibit FeSOD |  | 
CNCCNCc1ccnc2ccccc12 [Compound 10] | 13 | 12.5 ± 1.1 | 9 | 18.4 ± 1.1 | 7 | 24.1 ± 0.6 |  |  |  |  |  |  |  |  | 
CN(C)CCNCc1ccnc2ccccc12 [Compound 8, 1-{4-quinolyl)-5-methyl-2,5-diazahexane] | 2 (2) | 14.1 ± 0.6 | 2 | 13.8 ± 0.7 | 2 (2) | 12.8 ± 0.6 |  |  |  |  |  |  |  |  | 
